Our source for the pKa and IC50 values is ChEMBL document CHEMBL1133467, “Identification of novel inhibitors of urokinase via NMR-based screening” (J Med Chem, 2000).

Series [1] in a line: Acid dissociation constant (pKa) of the compound. Format: physicochemical.
In series [2] the target is Urokinase-type plasminogen activator (Homo sapiens, UniProt P00749). Nature of the series: Inhibitory activity against Urokinase-type plasminogen activator.

`N=C(N)c1ccc(N)cc1` registered a pKa in series [1] of 11.4. The IC50 in series [2] came to 7 µM.

Consider `Nc1nc2cc(O)ccc2[nH]1`, for which the pKa in series [1] amounted to 7.4.

Take `Nc1nc2ccccc2[nH]1`: the pKa in series [1] is 7.5. In series [2], this compound came in with an IC50 of 200 µM.

As for `N=C(N)Nc1ccccc1` [PHENYLGUANIDINE], in series [1], the pKa was found to be 10.9. Further, the IC50 in series [2] was 20 µM.
